Assay results published in ChEMBL document CHEMBL3877335, “Bifunctional Inhibitors as a New Tool To Reduce Cancer Cell Invasion by Impairing MMP-9 Homodimerization” (ACS Med Chem Lett, 2017).
The source made the active and inactive calls. No cut-off for these calls is given here.

Legend:
[1] = biological target: T1, Matrix metalloproteinase-9 (Homo sapiens, UniProt P14780); experiment: Inhibition of MMP-9 homodimerization in human U87MG cells assessed as reduction in cell invasion at 5 to 25 nM measured after 24 hrs by p-formaldehyde/crystal violet staining based matrigel basement membrane transwell assay; details: U-87MG ATCC
T1 sequence (P14780 whole entry): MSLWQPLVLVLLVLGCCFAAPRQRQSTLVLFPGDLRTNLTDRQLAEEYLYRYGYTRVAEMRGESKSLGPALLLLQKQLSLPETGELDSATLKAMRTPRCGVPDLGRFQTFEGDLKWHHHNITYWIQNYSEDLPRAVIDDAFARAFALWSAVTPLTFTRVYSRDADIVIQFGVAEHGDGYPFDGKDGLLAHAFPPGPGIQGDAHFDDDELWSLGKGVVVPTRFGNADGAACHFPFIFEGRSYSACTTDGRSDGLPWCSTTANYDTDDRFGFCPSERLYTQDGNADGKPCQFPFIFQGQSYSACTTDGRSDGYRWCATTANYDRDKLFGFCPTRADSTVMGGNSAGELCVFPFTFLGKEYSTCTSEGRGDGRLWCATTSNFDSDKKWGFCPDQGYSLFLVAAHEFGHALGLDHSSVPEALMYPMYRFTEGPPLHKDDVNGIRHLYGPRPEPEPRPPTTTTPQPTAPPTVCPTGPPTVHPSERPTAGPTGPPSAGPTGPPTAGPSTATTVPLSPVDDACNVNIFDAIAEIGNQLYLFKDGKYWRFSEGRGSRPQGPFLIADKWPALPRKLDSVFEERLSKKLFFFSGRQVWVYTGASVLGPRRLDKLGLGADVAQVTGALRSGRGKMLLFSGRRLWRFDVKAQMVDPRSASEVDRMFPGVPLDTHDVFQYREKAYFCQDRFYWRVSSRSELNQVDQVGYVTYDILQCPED

[2] = Antiproliferative activity against human U343MG cells at 5 to 25 nM measured after 24 hrs by MTS assay; type: cell-based; details: 0.025 µM
Interstitial collagenase = biological target: T2, Interstitial collagenase (Homo sapiens, UniProt P03956); experiment: Inhibition of p-aminophenylmercuric acetate activated human rheumatoid synovial fibroblast MMP-1 pretreated for 4 hrs followed by Mca-Lys-Pro-Leu-Gly-Leu-Dap(Dnp)-Ala-Arg-NH2 fluorogenic substrate addition measured every 15 secs for 20 mins by fluorimetric assay
T2 sequence (P03956 whole entry): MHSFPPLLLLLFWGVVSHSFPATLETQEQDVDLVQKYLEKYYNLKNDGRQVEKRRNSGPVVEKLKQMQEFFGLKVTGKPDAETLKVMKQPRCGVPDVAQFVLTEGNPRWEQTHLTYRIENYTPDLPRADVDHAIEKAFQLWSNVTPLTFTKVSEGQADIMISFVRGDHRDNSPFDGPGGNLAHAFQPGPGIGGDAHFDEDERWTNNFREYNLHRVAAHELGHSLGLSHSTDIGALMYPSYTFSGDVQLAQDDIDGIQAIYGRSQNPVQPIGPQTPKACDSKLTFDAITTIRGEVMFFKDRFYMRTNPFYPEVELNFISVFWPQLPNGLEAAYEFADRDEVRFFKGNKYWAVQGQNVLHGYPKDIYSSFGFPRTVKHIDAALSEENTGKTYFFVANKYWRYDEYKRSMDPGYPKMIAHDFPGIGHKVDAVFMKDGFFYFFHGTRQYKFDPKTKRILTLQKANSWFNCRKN

[3] = Antiproliferative activity against human U87MG cells at 5 to 25 nM measured after 24 hrs by MTS assay; type: cell-based; details: u-87mg atcc, 0.025 µM
[4] = biological target: T1, Matrix metalloproteinase-9; experiment: Inhibition of p-aminophenylmercuric acetate activated recombinant human MMP-9 expressed in CHO cells pretreated for 4 hrs followed by Mca-Lys-Pro-Leu-Gly-Leu-Dap(Dnp)-Ala-Arg-NH2 fluorogenic substrate addition measured every 15 secs for 20 mins by fluorimetric assay; type: cell-based
[5] = biological target: 72 kDa type IV collagenase (Homo sapiens, UniProt P08253); experiment: Inhibition of p-aminophenylmercuric acetate activated recombinant human MMP-2 expressed in CHO cells pretreated for 4 hrs followed by Mca-Lys-Pro-Leu-Gly-Leu-Dap(Dnp)-Ala-Arg-NH2 fluorogenic substrate addition measured every 15 secs for 20 mins by fluorimetric assay; type: cell-based
Sequence of 72 kDa type IV collagenase (P08253 whole entry): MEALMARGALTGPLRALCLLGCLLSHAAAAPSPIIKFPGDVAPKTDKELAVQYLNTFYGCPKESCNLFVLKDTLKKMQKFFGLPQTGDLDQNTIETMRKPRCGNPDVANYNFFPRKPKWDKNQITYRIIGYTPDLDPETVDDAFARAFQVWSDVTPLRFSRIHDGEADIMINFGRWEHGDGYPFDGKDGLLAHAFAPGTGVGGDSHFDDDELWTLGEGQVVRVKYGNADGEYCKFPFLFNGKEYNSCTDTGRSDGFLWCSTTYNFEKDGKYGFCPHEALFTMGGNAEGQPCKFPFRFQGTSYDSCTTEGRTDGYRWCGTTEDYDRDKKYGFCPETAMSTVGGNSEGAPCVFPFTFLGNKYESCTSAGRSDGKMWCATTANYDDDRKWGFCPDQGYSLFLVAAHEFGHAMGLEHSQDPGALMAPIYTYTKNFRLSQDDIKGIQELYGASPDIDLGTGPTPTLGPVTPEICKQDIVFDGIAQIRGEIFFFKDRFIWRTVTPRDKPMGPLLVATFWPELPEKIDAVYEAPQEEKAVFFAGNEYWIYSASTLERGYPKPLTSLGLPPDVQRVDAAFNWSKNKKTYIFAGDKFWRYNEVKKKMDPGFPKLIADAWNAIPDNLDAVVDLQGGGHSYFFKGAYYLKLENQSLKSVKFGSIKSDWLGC

[6] = biological target: T1, Matrix metalloproteinase-9; experiment: Inhibition of MMP-9 homodimerization in human T98G cells assessed as reduction in cell invasion at 5 to 25 nM measured after 24 hrs by p-formaldehyde/crystal violet staining based matrigel basement membrane transwell assay
[7] = biological target: Matrix metalloproteinase-14 (Homo sapiens, UniProt P50281); experiment: Inhibition of recombinant human MMP-14 catalytic domain pretreated for 4 hrs followed by Mca-Lys-Pro-Leu-Gly-Leu-Dap(Dnp)-Ala-Arg-NH2 fluorogenic substrate addition measured every 15 secs for 20 mins by fluorimetric assay
[8] = Antiproliferative activity against human T98G cells at 5 to 25 nM measured after 24 hrs by MTS assay; type: cell-based; details: 0.025 µM
[9] = biological target: T1, Matrix metalloproteinase-9; details: U-87MG ATCC, 25 nM
Description: Inhibition of MMP-9 homodimerization in human U87MG cells assessed as reduction in cell invasion at 25 nM measured after 24 hrs by p-formaldehyde/crystal violet staining based matrigel basement membrane transwell assay

[10] = biological target: T1, Matrix metalloproteinase-9; details: T98G, 25 nM
Description: Inhibition of MMP-9 homodimerization in human T98G cells assessed as reduction in cell invasion at 25 nM measured after 24 hrs by p-formaldehyde/crystal violet staining based matrigel basement membrane transwell assay

[11] = biological target: T1, Matrix metalloproteinase-9; experiment: Inhibition of MMP-9 homodimerization in human U343MG cells assessed as reduction in cell invasion at 25 nM measured after 24 hrs by p-formaldehyde/crystal violet staining based matrigel basement membrane transwell assay
Homo sapiens = organism: Homo sapiens; experiment: Selectivity ratio of IC50 for p-aminophenylmercuric acetate activated human rheumatoid synovial fibroblast MMP-1 to IC50 for p-aminophenylmercuric acetate activated recombinant human MMP-9

| inhibition [1] | IC50 (Interstitial collagenase) [nM] | IC50 [4] [nM] | IC50 [5] [nM] | inhibition [6] | IC50 [7] [nM] | inhibition [9] | inhibition [10] | inhibition [11] | Ratio IC50 (Homo sapiens) | Structure (SMILES) | Activity [2] | Activity [3] | Activity [8] |
| --- | --- | --- | --- | --- | --- | --- | --- | --- | --- | --- | --- | --- | --- |
| Active | 16000 | 510 | 170 | Active | 1830 |  |  |  |  | CC(C)[C@H](C(=O)O)N(CCNC(=O)c1ccccc1)S(=O)(=O)c1ccc(-c2ccccc2)cc1 | Non-Toxic | Non-Toxic | Non-Toxic |
| Active | 13 | 2.5 | 0.16 | Active | 23 |  |  |  |  | CC(C)[C@H](C(=O)NO)N(CCNC(=O)c1ccccc1)S(=O)(=O)c1ccc(-c2ccccc2)cc1 | Non-Toxic | Non-Toxic | Non-Toxic |
|  |  |  |  |  |  | Active | Active | Active |  | COc1ccc(S(=O)(=O)N(Cc2cccnc2)[C@@H](C(=O)NO)C(C)C)cc1 |  |  |  |
|  | 2050 | 34 | 110 |  | 850 |  |  |  |  | CC(C)[C@H](C(=O)O)N(CCNC(=O)c1cccc(C(=O)NCCN([C@@H](C(=O)N(C)C)C(C)C)S(=O)(=O)c2ccc(-c3ccccc3)cc2)c1)S(=O)(=O)c1ccc(-c2ccccc2)cc1 |  |  |  |
| Active | 11800 | 26 | 63 | Active | 2200 |  |  | Active | 450 | CC(C)[C@H](C(=O)O)N(CCNC(=O)c1cccc(C(=O)NCCN([C@@H](C(=O)O)C(C)C)S(=O)(=O)c2ccc(-c3ccccc3)cc2)c1)S(=O)(=O)c1ccc(-c2ccccc2)cc1 | Non-Toxic | Non-Toxic | Non-Toxic |
| Active | 280 | 5.5 | 10 | Active | 250 |  |  | Active |  | CC(C)[C@H](C(=O)NO)N(CCNC(=O)c1cccc(C(=O)NCCN([C@@H](C(=O)NO)C(C)C)S(=O)(=O)c2ccc(-c3ccccc3)cc2)c1)S(=O)(=O)c1ccc(-c2ccccc2)cc1 | Non-Toxic | Non-Toxic | Non-Toxic |
|  | 5200 | 38 | 20 |  | 116 |  |  |  |  | CC(C)ON([C@H](CCNC(=O)CCCNC(=O)c1cccc(C(=O)NCCCC(=O)NCC[C@H](C(=O)NO)N(OC(C)C)S(=O)(=O)c2ccc(-c3ccccc3)cc2)c1)C(=O)NO)S(=O)(=O)c1ccc(-c2ccccc2)cc1 |  |  |  |
|  | 1600 | 41 | 107 |  | 900 |  |  |  |  | CC(C)[C@H](C(=O)NO)N(CCNC(=O)c1cccc(C(=O)NCCN([C@@H](C(=O)N(C)C)C(C)C)S(=O)(=O)c2ccc(-c3ccccc3)cc2)c1)S(=O)(=O)c1ccc(-c2ccccc2)cc1 |  |  |  |
